Source: patent US20020147136A1, “Compounds for targeting endothelial cells, compositions containing the same and methods for their use” (priority 2000, published 2002)
Residues, ends and D or L forms follow the SMILES beside them. No end group written: not given here.

Tests used:
HAEC = assay: Inhibition of TKPPR-bubble binding to HAEC in static culture by competing agents; type: cell-based, human; conditions: for ability to block binding of BRU-114 microbubbles to HAEC: up to 200 microM; for half-maximal inhibition of bubble binding / IC50 / Bubbles Bound: 5% TKPPR bubbles; for IC50: read-out: half-maximal inhibition of bubble binding; for inhibition of bubble binding to HAEC: Example 12
Protocol: Vials of the compositions of example 5 and of example 6 may be reconstituted with 5 mL of sterile saline, injected using a 20-guage 1.5 inch needle. Bubbles may be then formed within the vials by shaking by hand vigorously for 30 seconds. 1 to 5 mL of the bubble formulation may be removed from each vial and diluted with 3 volumes of D-PBS (without calcium or magnesium) within 1 hour of use.
Chamber slides containing confluent HAEC may be drained of culture medium, which was immediately replaced with one of the final bubble solutions prepared above. The wells may be slightly overfilled such that the liquid meniscus protrudes slightly above the plastic well-forming scaffold of the slide. Bubble solutions may be only added to alternate wells to minimize liquid cross-talk. The wells may be sealed with a piece of Parafilm and the slide incubated 20 minutes, inverted (according to Klibanov A. L., Advanced drug Delivery Reviews, 37, 1999, 139-157) to allow the bubbles to rise and make contact with the cells, after which the solutions may be poured off. Weakly associated bubbles may be removed by washing each well twice with 0.5 mL of D-PBS, swirling gently each time before pouring off. Additional D-PBS (0.5 mL) may be added to wells after the washes to keep the cells submerged until microscopic evaluation.
Composition I of Example 5 was repeated exactly as described except that 0.5 mg DPPE-GTKPPR was added (instead of 2.5 mg) yielding compositions with 1% DPPE-GTKPPR. Vials of this composition as well as that of composition I ofExample 5 (5% DPPE-GTKPPR) were reconstituted with 5 mL of sterile saline, injected using a 20-guage 1.5 inch needle. Bubbles were then formed within the vials by shaking by hand vigorously for 30 seconds. 1 to 5 mL of the bubble formulation was removed from each vial and diluted with 3 volumes of D-PBS (without calcium or magnesium) within 1 hour of use.
Chamber slides containing confluent HAEC were drained of culture medium, which was immediately replaced with one of the final bubble solutions prepared above. The wells were slightly overfilled such that the liquid meniscus protruded slightly above the plastic well-forming scaffold of the slide. Bubble solutions were only added to alternate wells to minimize liquid cross-talk. The wells were sealed with a piece of Parafilm and the slide was incubated 20 minutes, inverted to allow the bubbles to rise and make contact with the cells, after which the solutions were poured off. Weakly associated bubbles were removed by washing each well twice with 0.5 mL of D-PBS, swirling gently each time pouring off. Additional D-PBS (0.5 mL) was added to wells after the washes to keep the cells submerged until microscopic evaluation.
Assays were performed as described for Example 7 using microbubble compositions containing 2% BRU-114 (Composition I of Example 5) as a % of total phospholipid in the composition.
Compositions were reconstituted and assays were performed as described in Example 7 using microbubble compositions containing 1% BRU-114 (Composition I of Example 5) as a % of total phospholipid in the composition.
Assays were performed as described for Example 7 using microbubble compositions containing 2% BRU-114 (as a % of total phospholipid in the composition).

NP-1/Fc = assay: Inhibition of 125I-VEGF165 binding to NP-1/Fc
Protocol: The ability of various compositions comprising TKPPR monomers or multimers to inhibit ^125I-VEGF binding to NP-1 was evaluated using NP-1/Fc. Competitive binding assays with microtiter plates coated with NP-1/Fc (R&D sytems) were performed using ^125I-VEGF165 as radioligand (Amersham Pharmacia Biotech Cat. No. IM274, Specific Activity: 1000-2500 Ci/mmol). […] Plates (Nunc MaxiSorp white opaque Microtiter plate [C-bottom, 437796]) were coated by incubating the wells with 75 µl of a solution containing 3 μlg/mL NP-1/Fc in D-PBS/0.1% NaAzide overnight at 4° C. after covering with sealing tape (Dynex, VWR Cat. No. 62402-931). […] All points were derived from triplicate wells, and for each set of replicates in NP-1/Fc-coated wells, a companion set in the absence of the receptor was included. For competitive binding, a series of unlabelled competitor concentrations were prepared in a 250 pM solution of ^1251-VEGF165 in assay buffer Solutions were added to 1.2 ml polypropylene tubes conforming to the microtiter format (Costar Cat. No. 29442-602), and transferred from these tubes to microtiter wells, without further dilution, using a multichannel pipettor. After addition of the appropriate solutions, microtiter plates were incubated at 4° C. for 2 hours. […] The plates were blotted dry and 25 μl deionized water and 100 μl scintillation fluid (Optiphase SuperMix, Wallac) were added to each well. Plates were agitated using a Plate Shaker (Hyperion, Cat. No. 4030-100F) for 3-5 minutes and were then counted using a Microplate Scintillation Counter (Wallac Microbeta Trilux) A set of serially diluted 125I-VEGF165 standard wells ranging from 200 to 0.04 pM were included with each experiment to aid in quantification of the amount of radiolabel bound.

Neuropilin-1/Fc = assay: Fluorescence polarization binding to NP-1/Fc; conditions: for binding to NP-1/Fc by FP: Oregon Green-labeled ligand
Protocol: The ability of various compositions comprising TKPPR monomers or multimers to bind to NP-1/Fc and KDR-Fc was evaluated using FP. The binding studies of various Oregon Green (OG)-labeled compounds comprising TKPPR monomers or multimers and related compounds with Neuropilin-1/Fc, and KDR-Fc (both from R&D Systems), were carried out at 37° C. in D-PBS buffer (pH 7.4). FP values (mP) for each substrate was measured by titrating the ligand (5-20 nM) with receptor protein using a Jolley Research and Consulting FPM-1 fluorescence Polarization analyzer. In each of these experiments the observed polarization values were plotted against receptor concentration. The mP values for 100% binding of tracer labeled ligand to receptor protein was calculated using the software provided by the vendor.

[1] = competitor 50 microM, 2% BRU-114 bubbles
[2] = competitor 100 microM, 2% BRU-114 bubbles
[3] = competitor 200 microM, 2% BRU-114 bubbles
[4] = competitor 100 ng/ml, 2% BRU-114 bubbles
[5] = competitor 200 ng/ml, 2% BRU-114 bubbles

CC(O)C(NC(=O)C(N)CS)C(=O)NC(CCCCN)C(=O)N1CCCC1C(=O)N1CCCC1C(=O)NC(CCCNC(=N)N)C(=O)NC(CS)C(=O)O (stereo not drawn) [BRU-305] (H-CTKPPRC-OH; configuration not given here)
ability to block binding of BRU-114 microbubbles to HAEC (HAEC; 2% BRU-114 bubbles): no ability to block | Bubbles Bound % of control binding (HAEC; [1]): 97% | Bubbles Bound % of control binding (HAEC; [2]): 78% | Bubbles Bound % of control binding (HAEC; [3]): 88%

CC(O)C1/N=C(/O)C(N)CSSCC(C(=O)O)/N=C(/O)C(CCCNC(=N)N)/N=C(\O)C2CCCN2C(=O)C2CCCN2C(=O)C(CCCCN)/N=C\1O (stereo not drawn) [BRU-306]
ability to block binding of BRU-114 microbubbles to HAEC (HAEC; 2% BRU-114 bubbles): no ability to block | Bubbles Bound % of control binding (HAEC; [1]): 97% | Bubbles Bound % of control binding (HAEC; [2]): 71% | Bubbles Bound % of control binding (HAEC; [3]): 99%

C[C@@H](O)[C@H](N)C(=O)N[C@@H](CCCCN)C(=O)N1CCC[C@H]1C(=O)N[C@@H](CCCNC(=N)N)C(=O)O [TKPR, L-threonyl-L-lysyl-L-prolyl-L-Arginine, reference compound] (H-TKPR-OH)
potency at inhibiting BRU-114 microbubble binding relative to TKPPR (BRU-95) (HAEC; 1% BRU-114 bubbles): less potent than TKPPR | inhibition of TKPPR-bubble binding to HAEC (HAEC; Example 7, compared with free TKPPR): less effectively than free TKPPR | Bubbles Bound (average of duplicate) (HAEC; competitor 5 microM, 1% BRU-114 bubbles): 1152 | Bubbles Bound (average of duplicate) (HAEC; competitor 10 microM, 1% BRU-114 bubbles): 976 | Bubbles Bound (average of duplicate) (HAEC; competitor 25 microM, 1% BRU-114 bubbles): 1171 | Bubbles Bound (average of duplicate) (HAEC; competitor 50 microM, 1% BRU-114 bubbles): 904 | Bubbles Bound (average of duplicate) (HAEC; competitor 100 microM, 1% BRU-114 bubbles): 556 | fold less potent a binding inhibitor than TKPPR (NP-1/Fc): 5 to 6 fold | IC50 (NP-1/Fc; 250 pM 125I-VEGF165, 4° C., 2 hours): 280000 nM

BRU-170: TPATSVRG (negative control) [reference compound]
inhibition of 125I-VEGF165 binding to NP-1 Fc (NP-1/Fc; at 1 μM): no inhibition

BRU-317: TKPPR dimer labeled with Oregon Green (also: dimer, labeled with Oregon Green)
fold more potent than the monomer (NP-1/Fc): 10 to 14 fold | binding to NP-1/Fc by FP (Neuropilin-1/Fc): barely detectable

KDR/Fc: soluble human KDR/Fc chimera (R&D Sytems Inc.)
half-maximal inhibition of bubble binding (HAEC): about 450 ng/mL | IC50 (HAEC): ~1.4 nM | inhibition of bubble binding to HAEC (HAEC): inhibit potently | Bubbles Bound (HAEC; KDR/Fc added 125 ng/ml): 1030 ± 12 | Bubbles Bound (HAEC; KDR/Fc added 250 ng/ml): 786 ± 76 | Bubbles Bound (HAEC; KDR/Fc added 500 ng/ml): 342 ± 78 | Bubbles Bound (HAEC; KDR/Fc added 1000 ng/ml): 75 ± 5 | Bubbles Bound (HAEC; KDR/Fc added 2500 ng/ml): 84 ± 3

TKPPR-K(RPPKT)-K[K(RPPKT)TKPPR]-G-Z-OG [BRU-346]
binding characteristics compared to BRU-326 (Neuropilin-1/Fc): did not exhibit the same binding characteristics | binding to NP-1/Fc by FP (Neuropilin-1/Fc): negative

Thr-Lys-Pro-Pro-Arg-Lys(Arg-Pro-Pro-Lys-Thr)-Gly-TTDA-OG [BRU-337]
binding characteristics compared to BRU-326 (Neuropilin-1/Fc): did not exhibit the same binding characteristics

VEGF165: vascular endothelial growth factor isoform containing 165 amino acids
ability to inhibit binding of BRU-114 microbubbles to HAEC (HAEC; 2% BRU-114 bubbles): potently blocked | half-maximal inhibition of bubble binding (HAEC): about 12.5 ng/mL | IC50 (HAEC): ~0.3 nM | inhibition of bubble binding to HAEC (HAEC): potently may inhibit | Bubbles Bound (HAEC; VEGF added 6.25 ng/ml): 1184 ± 172 | Bubbles Bound (HAEC; VEGF added 12.5 ng/ml): 599 ± 6 | Bubbles Bound (HAEC; VEGF added 25 ng/ml): 342 ± 22 | Bubbles Bound (HAEC; VEGF added 50 ng/ml): 226 ± 39 | Bubbles Bound (HAEC; VEGF added 75 ng/ml): 190 ± 45 | Bubbles Bound (average of duplicate) (HAEC; competitor 25 ng/ml, 2% BRU-114 bubbles): 144 | Bubbles Bound (average of duplicate) (HAEC; [4]): 94 | Bubbles Bound (average of duplicate) (HAEC; [5]): 70

B1: VEGF121: VEGF isoform of 121 amino acids, lacks the heparin-binding domain (protein)
chain: APMAEGGGQNHHEVVKFMDVYQRSYCHPIETLVDIFQEYPDEIEYIFKPSCVPLMRCGGCCNDEGLECVPTEESNITMQIMRIKPHQGQHIGEMSFLQHNKCECRPKKDRARQEKCDKPRR
ability to inhibit binding of BRU-114 microbubbles to HAEC (HAEC; 2% BRU-114 bubbles): little if any ability to inhibit | Bubbles Bound (average of duplicate) (HAEC; [4]): 878 | Bubbles Bound (average of duplicate) (HAEC; [5]): 849 | Bubbles Bound (average of duplicate) (HAEC; competitor 400 ng/ml, 2% BRU-114 bubbles): 778 | effect on BRU-326 binding to NP-1 (Neuropilin-1/Fc; at up to 250nM): no effect
